From ChEMBL document CHEMBL1201862, “PubChem BioAssay data set” (2004)
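All cell lines were grown in 96-well plates and treated with compound for 48 hours. GI50 is the concentration that inhibits growth by half.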 Calls of active or inactive are those of the source. Rule as the data show it: active = GI50 up to about 1.1 µM and inactive = higher.

Experiments:
Test in all cases: inhibition of tumour cell growth, NCI panel, 48 h
PC-3 = test system: PC-3
OVCAR-5 = test system: OVCAR-5
IGROV-1 = test system: IGROV-1
HT-29 = test system: HT-29
NCI-H522 = test system: NCI-H522
COLO 205 = test system: COLO 205
UACC-62 = test system: UACC-62
HCC 2998 = test system: HCC 2998
OVCAR-8 = test system: OVCAR-8
SK-MEL-5 = test system: SK-MEL-5
SK-MEL-28 = test system: SK-MEL-28
MOLT-4 = test system: MOLT-4
ACHN = test system: ACHN
MDA-MB-435 = test system: MDA-MB-435
OVCAR-3 = test system: OVCAR-3
MDA-N = test system: MDA-N
SF-295 = test system: SF-295
UACC-257 = test system: UACC-257
A498 = test system: A498
TK-10 = test system: TK-10

Measured: GI50

COC(=O)c1oc([N+](=O)[O-])c(Cl)c1Cl
inactive: PC-3 8.34 µM | OVCAR-5 8.13 µM | IGROV-1 7.67 µM | HT-29 16.5 µM | NCI-H522 1.7 µM | COLO 205 4.12 µM | UACC-62 8.47 µM | HCC 2998 20 µM | OVCAR-8 10.6 µM | SK-MEL-5 9.08 µM | SK-MEL-28 8.53 µM | MOLT-4 2.19 µM | ACHN 8.91 µM | MDA-MB-435 7.8 µM | OVCAR-3 6.1 µM | MDA-N 7.98 µM | SF-295 11.8 µM | UACC-257 7.89 µM | A498 15.1 µM | TK-10 7.36 µM

Nn1c(-c2ccccc2)n[nH]c1=O
inactive: PC-3 > 100 µM | OVCAR-5 > 100 µM | IGROV-1 > 100 µM | HT-29 > 100 µM | NCI-H522 > 100 µM | COLO 205 > 100 µM | UACC-62 > 100 µM | HCC 2998 > 100 µM | OVCAR-8 > 100 µM | SK-MEL-5 > 100 µM | SK-MEL-28 > 100 µM | MOLT-4 > 100 µM | ACHN > 100 µM | MDA-MB-435 > 100 µM | OVCAR-3 > 100 µM | MDA-N > 100 µM | SF-295 > 100 µM | UACC-257 > 100 µM | A498 > 100 µM | TK-10 > 100 µM

CSc1c(C(=O)Nc2ccc(Cl)cc2)c(N)nn1-c1ccccc1
inactive: PC-3 > 100 µM | OVCAR-5 > 100 µM | IGROV-1 > 100 µM | HT-29 > 100 µM | NCI-H522 > 100 µM | COLO 205 > 100 µM | UACC-62 > 100 µM | HCC 2998 > 100 µM | OVCAR-8 21.1 µM | SK-MEL-5 > 100 µM | SK-MEL-28 > 100 µM | MOLT-4 > 100 µM | ACHN 78.7 µM | MDA-MB-435 > 100 µM | OVCAR-3 > 100 µM | MDA-N > 100 µM | SF-295 > 100 µM | UACC-257 > 100 µM | A498 > 35.3 µM | TK-10 > 38.9 µM

O=S1(=O)CCN(Cc2ccccc2)/C1=N\S(=O)(=O)c1ccc(Cl)cc1
inactive: PC-3 18 µM | OVCAR-5 18.1 µM | IGROV-1 17.8 µM | HT-29 17.9 µM | NCI-H522 14.5 µM | COLO 205 19.4 µM | UACC-62 17.8 µM | HCC 2998 19.3 µM | OVCAR-8 17 µM | SK-MEL-5 21.2 µM | SK-MEL-28 18.3 µM | MOLT-4 20.5 µM | ACHN 18.8 µM | MDA-MB-435 19.1 µM | OVCAR-3 19.4 µM | MDA-N 18.2 µM | SF-295 48.2 µM | UACC-257 20.7 µM | A498 28.5 µM | TK-10 17 µM

C=CCOC(C)(C)C1=CCC(C)CC1 (stereo not given)
inactive: PC-3 > 100 µM | OVCAR-5 > 100 µM | IGROV-1 > 100 µM | HT-29 > 100 µM | NCI-H522 > 100 µM | COLO 205 > 100 µM | UACC-62 > 100 µM | HCC 2998 > 100 µM | OVCAR-8 > 100 µM | SK-MEL-5 > 100 µM | SK-MEL-28 > 100 µM | MOLT-4 > 100 µM | ACHN > 100 µM | MDA-MB-435 > 100 µM | OVCAR-3 > 100 µM | MDA-N > 100 µM | SF-295 > 100 µM | UACC-257 > 100 µM | A498 > 100 µM | TK-10 > 100 µM

[N-]=[N+]=Nc1c([N+](=O)[O-])c(=O)n2c3c(cccc13)CCC2
inactive: PC-3 16.9 µM | OVCAR-5 16.4 µM | IGROV-1 20.8 µM | HT-29 15 µM | NCI-H522 2.08 µM | COLO 205 6.28 µM | UACC-62 14 µM | HCC 2998 19.1 µM | OVCAR-8 17.3 µM | SK-MEL-5 16.7 µM | SK-MEL-28 5.62 µM | MOLT-4 2.48 µM | ACHN 17.8 µM | MDA-MB-435 17.3 µM | OVCAR-3 17 µM | MDA-N 14.4 µM | SF-295 > 65.5 µM | UACC-257 8.15 µM | A498 27 µM | TK-10 20 µM

O=c1c2cc(I)ccc2nc(SCc2n[nH]c(=S)o2)n1Cc1ccccc1
inactive: PC-3 15.7 µM | OVCAR-5 24.8 µM | IGROV-1 16.6 µM | HT-29 22.3 µM | NCI-H522 14.2 µM | COLO 205 10.6 µM | UACC-62 12.5 µM | HCC 2998 18.8 µM | OVCAR-8 19.1 µM | SK-MEL-5 13.2 µM | SK-MEL-28 17.5 µM | MOLT-4 20.7 µM | ACHN 15.3 µM | MDA-MB-435 19.3 µM | OVCAR-3 15.2 µM | MDA-N 17.3 µM | SF-295 17.3 µM | UACC-257 18.1 µM | A498 18.6 µM | TK-10 21 µM

O=C(NCCCCCCNC(=O)n1cc(F)c(=O)[nH]c1=O)NCCCOCCOCCOCCOCCOCCOCCOCCOCCOCCOCCOCCOCCOCCOCCOCCOCCOCCOCCOCCOCCOCCCNC(=O)C(O)C(O)C(OC1OC(CO)C(O)C(O)C1O)C(O)CO (stereo not given)
inactive: PC-3 55.2 µM | OVCAR-5 > 54 µM | IGROV-1 33.7 µM | HT-29 11 µM | NCI-H522 87.9 µM | COLO 205 15.3 µM | UACC-62 27.9 µM | HCC 2998 1.71 µM | OVCAR-8 43.4 µM | SK-MEL-5 20.5 µM | SK-MEL-28 29.1 µM | MOLT-4 37 µM | ACHN 10.3 µM | MDA-MB-435 19.3 µM | OVCAR-3 37.1 µM | MDA-N 10 µM | SF-295 64.9 µM | UACC-257 59.4 µM | A498 18.6 µM | TK-10 > 100 µM

CC1=C[C@H](C[C@]2(C)c3c(c4c(C)cccc4oc3=O)O[C@@H]2C)OC1=O
inactive: PC-3 > 100 µM | OVCAR-5 > 100 µM | IGROV-1 > 100 µM | HT-29 35.6 µM | NCI-H522 22.6 µM | COLO 205 49.9 µM | UACC-62 73.1 µM | HCC 2998 > 100 µM | OVCAR-8 68.1 µM | SK-MEL-5 > 100 µM | SK-MEL-28 > 10 µM | MOLT-4 21.1 µM | ACHN > 100 µM | MDA-MB-435 41.7 µM | OVCAR-3 37 µM | MDA-N 36.6 µM | SF-295 > 100 µM | UACC-257 > 100 µM | A498 > 100 µM | TK-10 > 100 µM

C[N+](C)([O-])CCCNc1ccnc2cccc([N+](=O)[O-])c12
inactive: PC-3 45.8 µM | OVCAR-5 > 100 µM | IGROV-1 46 µM | HT-29 32.9 µM | NCI-H522 14.2 µM | COLO 205 20.7 µM | UACC-62 31.3 µM | HCC 2998 27.3 µM | OVCAR-8 81.3 µM | SK-MEL-5 16.1 µM | SK-MEL-28 72.6 µM | MOLT-4 20.2 µM | ACHN 33.1 µM | MDA-MB-435 46.2 µM | OVCAR-3 20.7 µM | MDA-N 30.6 µM | SF-295 92.7 µM | UACC-257 45.8 µM | A498 51.3 µM | TK-10 24.9 µM
